{"source": "patent US5968753A", "about": "“Positive and positive/negative cell selection mediated by peptide release” (Nexell Therapeutics, Inc., priority 1995, dated 1999)", "key": {"[1]": {"test_system": "561 antibody", "experiment": "Chemical reagents as enhancers of peptide-dependant release of CD34+ cells from the 561 antibody (FACS assay)", "assay_type": "cell-based", "experimental": "The ability of chemical reagents to enhance peptide-dependant release of captured CD34+ cells from the 561 antibody was examined. […] Previous studies indicated a requirement for low pH (about pH4) for effective cell release. Since long-term viability of the low pH-released cells was not known, conditions which could alter the pH to a more neutral value (about pH5-7) were desirable. Reagents which were known to affect electrostatic and hydrogen bonding interactions of proteins were tested in addition to excluded-volume polymers."}, "[2]": {"test_system": "561 antibody", "experiment": "KG1a or tHL60 cell-based FACS assay: release of prebound 561 antibody", "details": "for functional release activity: crude peptide", "experimental": "Five peptides representing hexapeptides selected from biopannings were synthesized and tested for their ability to serve as release agents in the KG1a or tHL60 cell-based FACS assay.\nHPLC-purified peptides 561C and D were tested in the cell-based KG1a FACS assay.\nFunctional release activity of purified 561D peptide at pH 4 and 6 was tested.\nFunctional release activity of purified 561C and 561D peptides at pH 4, 5, 6, 7, 8, and 9 was tested.\nFunctional release activity of crude 561A,B,C,D, M, P, Q, CDR2H, CDR2L, CDR3H, CDR3L, 34B, 34C,34D,34E and 34F peptides adjusted to pH 7 and pH unadjusted (^~ pH3.8-4.3) was tested."}, "[3]": {"test_system": "anti-CD34 antibody, 9069", "experiment": "KG1a cell FACS assay: release by peptides of 9069 antibody bound to cells", "assay_type": "cell-based, mouse", "experimental": "These experiments were performed following a similar procedure to the binding experiments except that the anti-CD34 antibody, 9069, was incubated with KG1a cells first, followed by addition of peptide. The experimental outline is schematically shown below:\nAnti-CD34 antibody, 9069 (0.1 microgram) was incubated with KG1a cells (10^6) for 30 minutes at room temperature (about 22° C.). Molar excesses of 10^5 to 10^6 times the amount of peptide to antibody were tested for the ability to displace the prebound antibody. Peptides were incubated with the antibody-cell complexes for 30 minutes at room temperature (approximately 22° C.). Remaining bound antibody was detected using the FITC-goat anti-mouse IgG reagent described in Example 3.\nAnalysis of the variant peptide, 9069Q2, was done in parallel with the 9069N peptide. This analysis provides quality control information on reagents including the antibody, 9069, and the cells, KG1a. FACScan assays included a negative control of KG1a cells alone and positive control samples of KG1a cells with the 9069 antibody bound and detected with a secondary antibody, goat-anti-mouse IgG-FITC."}, "[4]": {"test_system": "9069 antibody", "experiment": "Stem cell selection with 9069 antibody and sheep-anti-mouse beads, release by peptide or chymopapain", "assay_type": "cell-based", "details": "chymopapain release"}, "[5]": {"test_system": "CD34+ cells", "experiment": "CD34+ cell isolation from mobilized peripheral blood on automated cell separation apparatus", "assay_type": "cell-based, human", "details": "25 mg of peptide 9069N or chymopapain control", "experimental": "CD34+ cells were also isolated from human mobilized peripheral blood using the automated cell separation apparatus of co-pending U.S. patent application Ser. No. 08/212,479, and the method essentially as described in co-pending U.S. patent application Ser. No. 08/212,616. Both Ser. No. 08/212,479 and Ser. No. 08/212,616 are herein expressly incorporated by reference. Chymopapain was used as the control releasing agent, and 25 mg of the peptide 9069N (Table 11) was used as the test releasing agent."}, "[6]": {"test_system": "positively selected CD34+ cells", "experiment": "Culture of positively selected CD34+ cells with cytokines for 12 days", "assay_type": "cell-based, human", "details": "released cells of first experiment", "experimental": "The purity of the positively selected CD34+ cells was greater than 90% for both the chymopapain and peptide released cells. In a first experiment, the peptide release method yielded 14×10^6 cells, while the chymopapain release method yielded 20×10^6 cells. In a second experiment, the peptide release method yielded 19×10^6 cells, while the chymopapain release method yielded 22×10^6 cells. The positively selected CD34+ cells from the first experiment were grown in culture with cytokines for 12 days."}, "[7]": {"experiment": "Solubilization of peptides in DPBS plus 1% HSA", "assay_type": "physicochemical", "details": "Dulbecco's phosphate buffered saline (DPBS) plus 1% HSA", "experimental": "9079A-G peptides were solubilized in Dulbecco's phosphate buffered saline (DPBS) plus 1% HSA. The 9079A-G peptides were tested in the FACScan assay using 10 6 KG1a cells bound with 0.05 ug of the 9079 antibody."}, "[8]": {"details": "Table 7, mobilized peripheral blood (5.86 % CD34)"}, "[9]": {"details": "Table 8, mobilized peripheral blood (1.05 % CD34)"}, "[10]": {"details": "Table 9, bone marrow sample (3.66 % CD34)"}, "[11]": {"details": "Table 10, mobilized peripheral blood (0.68 % CD34)"}}, "note": "Ends that are not written are not given here.", "data": [{"compound": "[Cl-].[Cl-].[Mg+2]", "note": "[magnesium chlordie, magnesium chloride]", "values": [{"measurement": "enhancement of peptide mediated release of CD34+ selected cells", "setting": "[1]", "result": "Less dramatic results"}]}, {"compound": "CC(=O)O", "note": "[sodium acetate]", "values": [{"measurement": "enhancement of peptide mediated release of CD34+ selected cells", "setting": "[1]", "result": "significant activity as an enhancement reagent"}]}, {"compound": "A C K W C R (ACKWCR) [561M]", "values": [{"measurement": "release of 561 antibody prebound to KG1a or tHL60 cells", "setting": "[2]; KG1a or tHL60 cells", "result": "able to release 561 antibody prebound to KG1a or tHL60 cells"}, {"measurement": "functional release activity", "setting": "[2]; pH 7", "result": "none of these peptides showed release activity"}, {"measurement": "functional release activity", "setting": "[2]; pH unadjusted (around pH 3.8-4.3)", "result": "showed functional release activity"}, {"measurement": "release activity", "setting": "[2]; low pH (~4)", "result": "showed significant release activity"}, {"measurement": "release activity", "setting": "[2]; pH 6 or pH 7", "result": "did not show release activity"}]}, {"compound": "ADGA-NGGYFP-GAKD [9069H']", "values": [{"measurement": "Competition %", "setting": "[3]; Table 11, 9069 prebound to KG1a cells", "result": 75, "unit": "%"}, {"measurement": "release activity", "setting": "[3]; Table 13, yes/no", "result": "yes"}]}, {"compound": "Chymopapain", "values": [{"measurement": "% CD34 CELLS Negative Fraction", "setting": "[4]; [8]", "result": 2.5, "unit": "%"}, {"measurement": "% CD34 CELLS Positive Fraction", "setting": "[4]; [8]", "result": 94, "unit": "%"}, {"measurement": "% Capture", "setting": "[4]; [8]", "result": 62, "unit": "%"}, {"measurement": "% Yield", "setting": "[4]; [8]", "result": 65.9, "unit": "%"}, {"measurement": "% CD34 CELLS Negative Fraction", "setting": "[4]; [9]", "result": 0.16, "unit": "%"}, {"measurement": "% CD34 CELLS Positive Fraction", "setting": "[4]; [9]", "result": 90.1, "unit": "%"}, {"measurement": "% Capture", "setting": "[4]; [9]", "result": 86.9, "unit": "%"}, {"measurement": "% Yield", "setting": "[4]; [9]", "result": 73.4, "unit": "%"}, {"measurement": "% CD34 CELLS Negative Fraction", "setting": "[4]; [10]", "result": 0.34, "unit": "%"}, {"measurement": "% CD34 CELLS Positive Fraction", "setting": "[4]; [10]", "result": 92.1, "unit": "%"}, {"measurement": "% Capture", "setting": "[4]; [10]", "result": 91.8, "unit": "%"}, {"measurement": "% Yield", "setting": "[4]; [10]", "result": 79.9, "unit": "%"}, {"measurement": "% CD34 CELLS Negative Fraction", "setting": "[4]; [11]", "result": 0.12, "unit": "%"}, {"measurement": "% CD34 CELLS Positive Fraction", "setting": "[4]; [11]", "result": 79.73, "unit": "%"}, {"measurement": "% Capture", "setting": "[4]; [11]", "result": 86.7, "unit": "%"}, {"measurement": "% Yield", "setting": "[4]; [11]", "result": 68, "unit": "%"}, {"measurement": "cells yielded by release method", "setting": "[5]; first experiment", "result": "20×10^6 cells"}, {"measurement": "purity of the positively selected CD34+ cells", "setting": "[5]; mobilized peripheral blood", "result": "greater than 90%"}, {"measurement": "cells yielded by release method", "setting": "[5]; second experiment", "result": "22×10^6 cells"}, {"measurement": "expansion in cell number", "setting": "[6]", "result": 68, "unit": "fold"}]}, {"compound": "IQEFGVKD [9079F, IQEFGV-KD]", "values": [{"measurement": "solubility", "setting": "[7]", "result": "solubilized"}]}, {"compound": "KDVYSLWPKD [9079H, KD-VYSLWP-KD]", "values": [{"measurement": "solubility", "setting": "[7]", "result": "solubilized"}]}, {"compound": "NLQGEFKD [9079D, NLQGEF-KD]", "values": [{"measurement": "solubility", "setting": "[7]", "result": "solubilized"}]}, {"compound": "PGSPLGKD [9079A, PGSPLG-KD]", "values": [{"measurement": "solubility", "setting": "[7]", "result": "solubilized"}]}, {"compound": "QYTQPKD [9079C, QYTQPK-D]", "values": [{"measurement": "solubility", "setting": "[7]", "result": "solubilized"}]}, {"compound": "RSFYYRD [9079E, RSFYYR-D]", "values": [{"measurement": "solubility", "setting": "[7]", "result": "insoluble"}]}, {"compound": "YSRLGFKD [9079B, YSRLGF-KD]", "values": [{"measurement": "solubility", "setting": "[7]", "result": "solubilized"}]}]}
